≈ marks a conversion by molar mass, not a printed value. Where “and” joins values, the source holds several entries; their conditions need not be identical. Identical values can stand only once.
How the values were obtained:
[1] = test system: Escherichia coli (NCIM 2065); test: Minimum bactericidal concentration (MBC); type: cell-based; settings: E. Coli (NCIM 2065); for MBC/MIC: ratio ≤2 bactericidal, ≥4 tolerance
Method: (§1) MBC can be defined as the minimum concentration of a compound required to kill the bacteria over a fixed period under precise conditions. […] Colonies were counted, and colony forming unit (CFU) per milliliter was calculated.

MRSA (ATCC43300) [2] = test: Minimum bactericidal concentration (MBC); type: cell-based, methicillin-resistant Staphylococcus aureus
Method: as §1

MRSA (NCIM 5021) [3] = test: Minimum bactericidal concentration (MBC); type: cell-based, methicillin-resistant Staphylococcus aureus
Method: as §1

[4] = test system: Escherichia coli (NCIM 2567); parameters: method as in Yele et al., 2020, 2021; settings: ref Yele et al., 2020, 2021; cited from earlier work
MRSA (ATCC43300) [5] = test: Antibacterial susceptibility test, microbroth dilution MIC; type: cell-based, methicillin-resistant Staphylococcus aureus; settings: mean ± SD
[6] = test system: Bacillus subtilis (NCIM 2545); parameters: method as in Yele et al., 2020, 2021; settings: ref Yele et al., 2020, 2021; cited from earlier work
E. coli ParE enzyme = biological target: T1, E. coli ParE enzyme (Escherichia coli, UniProt P20083); test: E. coli ParE ATPase enzyme inhibition assay (ProFoldin kit, malachite green); type: biochemical; settings: ATPase activity, mean ± SD (n = 3)
T1 construct: purchased ProFoldin, Hudson, United States
Method: The assay was performed as per the standard protocol provided by the ProFoldin. […] ParE hydrolyzes ATP as the source of molecular energy to perform decatenation reactions. Fluoroquinolones and aminocoumarins usually block ATPase activity to hinder the biological activities of topoisomerase II. Thus, the topoisomerase ATPase assay can be used for high-throughput screening of topoisomerase inhibitors. The ATPase activity of the E. coli ParE enzyme was based on the detection of inorganic phosphate produced by the hydrolysis of ATP in the presence of DNA. The phosphate is detected using a microplate reader at an absorbance wavelength of 650 nm. The selected compounds were tested for the inhibition of ATPase activity of ParE enzyme. […] The reaction mixture was incubated for 1 h at 37°C and then quenched with 45 μL of Dye. Incubate for 5 min, and the absorbance was measured at 650 nm. The IC50 values were determined from the absorbance readings using no enzyme and no compound controls. They were calculated using the non-linear regression curve fit method.

[7] = test system: Escherichia coli (NCIM 2065); test: Antibacterial susceptibility test, microbroth dilution MIC; type: cell-based; settings: E. Coli (NCIM 2065); mean ± SD
[8] = test system: Staphylococcus epidermis (NCIM 2493); parameters: method as in Yele et al., 2020, 2021; settings: ref Yele et al., 2020, 2021; cited from earlier work
[9] = test system: Pseudomonas aeruginosa (NCIM 2036); parameters: method as in Yele et al., 2020, 2021; settings: ref Yele et al., 2020, 2021; cited from earlier work
[10] = test system: Mycobacterium tuberculosis (NCIM 2984); parameters: method as in Yele et al., 2020, 2021; settings: ref Yele et al., 2020, 2021; cited from earlier work
MRSA (NCIM 5021) [11] = test: Antibacterial susceptibility test, microbroth dilution MIC; type: cell-based, methicillin-resistant Staphylococcus aureus; settings: mean ± SD
[12] = test system: Klebsiella pneumonia (NCIM 2706); parameters: method as in Yele et al., 2020, 2021; settings: ref Yele et al., 2020, 2021; cited from earlier work
[13] = test system: Staphylococcus aureus (NCIM 5022); parameters: method as in Yele et al., 2020, 2021; settings: ref Yele et al., 2020, 2021; cited from earlier work
Vero cells [14] = test system: Vero cells
Vero cells [15] = test: In vitro cytotoxicity MTT assay; settings: CC50 Vero cells / IC50
E. coli [16] = test: Checkerboard synergy with FDA approved drugs; type: cell-based, Escherichia coli
E. coli [17] = test: Post antibiotic effect (PAE); type: cell-based, Escherichia coli; settings: for Time for 1 log10: untreated control 2 h

T1 sequence (P20083 whole entry): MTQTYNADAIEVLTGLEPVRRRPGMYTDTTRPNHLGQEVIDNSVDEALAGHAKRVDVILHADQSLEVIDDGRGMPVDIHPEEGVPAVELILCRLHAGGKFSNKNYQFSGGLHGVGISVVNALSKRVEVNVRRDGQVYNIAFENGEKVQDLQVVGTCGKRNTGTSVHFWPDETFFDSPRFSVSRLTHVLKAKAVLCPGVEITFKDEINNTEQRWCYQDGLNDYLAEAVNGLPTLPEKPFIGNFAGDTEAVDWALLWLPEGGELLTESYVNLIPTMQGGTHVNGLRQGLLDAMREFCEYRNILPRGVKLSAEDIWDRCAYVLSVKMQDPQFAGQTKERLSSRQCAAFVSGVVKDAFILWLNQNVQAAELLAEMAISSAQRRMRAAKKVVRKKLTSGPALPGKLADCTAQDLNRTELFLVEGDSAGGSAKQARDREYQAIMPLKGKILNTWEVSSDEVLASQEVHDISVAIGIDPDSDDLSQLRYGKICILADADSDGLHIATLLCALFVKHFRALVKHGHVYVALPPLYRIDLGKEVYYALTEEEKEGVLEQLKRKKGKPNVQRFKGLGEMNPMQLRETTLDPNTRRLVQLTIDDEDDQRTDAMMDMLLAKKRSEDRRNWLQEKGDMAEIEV
T1 sequence (P0AFI2 whole entry, further chain): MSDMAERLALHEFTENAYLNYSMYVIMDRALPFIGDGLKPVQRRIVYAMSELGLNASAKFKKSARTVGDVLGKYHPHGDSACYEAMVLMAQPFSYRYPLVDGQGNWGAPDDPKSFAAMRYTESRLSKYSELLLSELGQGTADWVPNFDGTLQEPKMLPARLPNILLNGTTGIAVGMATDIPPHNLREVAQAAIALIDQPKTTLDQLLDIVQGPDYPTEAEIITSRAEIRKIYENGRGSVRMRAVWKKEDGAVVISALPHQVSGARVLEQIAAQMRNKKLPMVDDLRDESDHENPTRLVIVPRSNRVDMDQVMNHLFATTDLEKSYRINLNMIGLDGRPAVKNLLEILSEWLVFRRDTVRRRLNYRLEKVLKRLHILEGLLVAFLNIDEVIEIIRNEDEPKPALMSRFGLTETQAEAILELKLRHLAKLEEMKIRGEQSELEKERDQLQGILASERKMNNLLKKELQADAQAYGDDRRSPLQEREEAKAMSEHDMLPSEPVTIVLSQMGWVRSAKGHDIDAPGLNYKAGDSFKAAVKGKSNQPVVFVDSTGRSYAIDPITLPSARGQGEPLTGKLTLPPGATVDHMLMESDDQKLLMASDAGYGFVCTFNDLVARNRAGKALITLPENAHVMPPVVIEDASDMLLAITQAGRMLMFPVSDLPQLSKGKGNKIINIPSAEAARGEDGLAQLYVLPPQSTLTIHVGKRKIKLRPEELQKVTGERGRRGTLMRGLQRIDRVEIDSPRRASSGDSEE

Structure (SMILES) | MBC [1] [mg/L] | MBC/MIC [1] | MBC (MRSA (ATCC43300) [2]) [mg/L] | MBC/MIC (MRSA (ATCC43300) [2]) | MBC (MRSA (NCIM 5021) [3]) [mg/L] | MBC/MIC (MRSA (NCIM 5021) [3]) | Minimum inhibitory concentration (MIC) E. c [4] | Minimum inhibitory concentration (MRSA (ATCC43300) [5]) [mg/L] | Minimum inhibitory concentration (MIC) B. s [6] | IC50 against E. coli ParE enzyme (E. coli ParE enzyme) [mg/L] | Minimum inhibitory concentration [7] | Minimum inhibitory concentration (MIC) S. e [8] | Minimum inhibitory concentration (MIC) P. a [9] | Minimum inhibitory concentration (MIC) M. t [10] | Minimum inhibitory concentration (MRSA (NCIM 5021) [11]) [mg/L] | Minimum inhibitory concentration (MIC) K. p [12] | Minimum inhibitory concentration (MIC) S. a [13] | other results
Cc1ccc(S(=O)(=O)NC(=O)COc2ccccc2NC(=O)CCl)cc1 [Compound 18] | 1.42 ± 0.23 (≈ 3.58 µM) | 1 | 3.74 ± 0.16 (≈ 9.42 µM) | 2 | 1.81 ± 0.40 (≈ 4.56 µM) | 1 | 5.20 | 1.74 ± 0.21 (≈ 4.38 µM) | 3.52 | 1.81 (≈ 4.56 µM) | 1.42 ± 0.23 mg/L (≈ 3.58 µM) | 3.96 | 4.67 | 4.62 | 1.81 ± 0.40 (≈ 4.56 µM) | 5.25 | 2.48 | 
O=C(CSc1nc2ccccc2s1)Nc1ccccc1 [Compound 23] | 0.95 ± 0.05 (≈ 3.16 µM) | 1 | 0.75 ± 0.11 (≈ 2.5 µM) | 1 | 0.94 ± 0.04 (≈ 3.13 µM) | 1 | 2.11 | 0.75 ± 0.11 (≈ 2.5 µM) | 1.27 | 1.76 (≈ 5.86 µM) | 0.95 ± 0.05 mg/L (≈ 3.16 µM) | 1.51 | 1.88 | 1.74 | 0.94 ± 0.04 (≈ 3.13 µM) | 1.62 | 1.84 | 
O=C(CSc1nc2ccccc2s1)Nc1ccc([N+](=O)[O-])cc1 [Compound 24] | 0.78 ± 0.08 (≈ 2.26 µM) | 1 | 0.73 ± 0.12 (≈ 2.11 µM) | 1 | 0.81 ± 0.10 (≈ 2.35 µM) | 1 | 2.17 | 0.73 ± 0.12 (≈ 2.11 µM) | 1.97 |  | 0.78 mg/L and 0.78 ± 0.08 mg/L | 1.98 | 15.0 | 2.52 | 0.81 ± 0.10 (≈ 2.35 µM) | 2.24 | 0.78 | CC50 (Vero cells [14]): 168.8089 mg/L (≈ 489 µM); SI (CC50/IC50) (Vero cells [15]): 351.6852
O=C(CNc1nc2ccccc2s1)Nc1ccccc1 [Compound 26] | 0.72 ± 0.05 (≈ 2.54 µM) | 1 | 4.32 ± 0.10 (≈ 15.2 µM) | 4 | 0.86 ± 0.13 (≈ 3.04 µM) | 1 | 1.05 | 2.78 ± 0.20 (≈ 9.81 µM) | 3.65 | 1.54 (≈ 5.43 µM) | 2.64 ± 0.31 mg/L (≈ 9.32 µM) | 8.14 | 1.22 | 10.1 | 2.77 ± 0.21 (≈ 9.78 µM) | 1.31 | 0.98 | 
COc1ccc(OCC(=O)Nc2ccc(C(=O)O)cc2)cc1 [Compound 27] | 1.59 ± 0.38 (≈ 5.28 µM) | 1 | 1.06 ± 0.14 (≈ 3.52 µM) | 1 | 3.55 ± 0.07 (≈ 11.8 µM) | 2 | 0.98 | 1.06 ± 0.14 (≈ 3.52 µM) | 3.06 | 1.30 (≈ 4.31 µM) | 1.59 ± 0.38 mg/L (≈ 5.28 µM) | 0.94 | 2.21 | 0.79 | 1.71 ± 0.24 (≈ 5.68 µM) | 1.40 | 0.94 | 
O=C(COc1ccc2ccccc2c1)Nc1ccc(Cl)cc1 [Compound 29] | 0.81 ± 0.14 (≈ 2.6 µM) | 1 | 0.91 ± 0.11 (≈ 2.92 µM) | 1 | 0.75 ± 0.19 (≈ 2.41 µM) | 1 | 0.77 | 0.91 ± 0.11 (≈ 2.92 µM) | 4.69 | 2.77 (≈ 8.88 µM) | 0.81 ± 0.14 mg/L (≈ 2.6 µM) | 4.70 | 5.48 | 0.77 | 0.75 ± 0.19 (≈ 2.41 µM) | 0.88 | 0.90 | 
CNC(C)C1CCC(N)C(OC2C(N)CC(N)C(OC3OCC(C)(O)C(NC)C3O)C2O)O1 (stereo not drawn) [Gentamicin] |  |  |  |  |  |  |  |  |  |  |  |  |  |  |  |  |  | FIC A (E. coli [16]; FIC of compound 5 in combination): 0.1453; FIC A (E. coli [16]; FIC of compound 21 in combination with the row's drug): 0.1907; FIC B (E. coli [16]; FIC of the drug in combination with compound 5): 0.1254; FIC B (E. coli [16]; FIC of the drug in combination with compound 21): 0.1510; Inference (E. coli [16]; drug combined with compound 5): Synergistic (synergistic when the ΣFICs is ≤ 0.5); Inference (E. coli [16]; drug combined with compound 21): Synergistic (synergistic when the ΣFICs is ≤ 0.5); ΣFIC A + FIC B (E. coli [16]; drug combined with compound 21): 0.3417; PAE = T - C (E. coli [17]; 1 × mic): 0 h; Time for 1 log10 (E. coli [17]; 1 × mic): 2 h; PAE = T - C (E. coli [17]; 10 × mic): 1 h; Time for 1 log10 (E. coli [17]; 10 × mic): 3 h

Reference: PMC8247773, “Benzohydrazide and Phenylacetamide Scaffolds: New Putative ParE Inhibitors” (Frontiers in Bioengineering and Biotechnology, 2021)
